From patent US12660819B2, “Herbicidal derivatives” (SYNGENTA CROP PROTECTION AG, priority 2020, dated 2026)

Assays:
Type in all cases: in vivo
Setaria faberi (SETFA) [1] = test: Pre-emergence Test (glasshouse, percentage damage to the plant); settings: 1000 g/ha unless otherwise stated, five-point scale
[2] = test system: Amaranthus retoflexus (AMARE); test: as above; settings: 1000 g/ha unless otherwise stated, five-point scale
[3] = test system: Abutilon theophrasti (ABUTH); test: as above; settings: 1000 g/ha unless otherwise stated, five-point scale
Zea mays (ZEAMX) [4] = test: as above; settings: 1000 g/ha unless otherwise stated, five-point scale
[5] = test system: Echinochloa crus-galli (ECHCG); test: Post-emergence Test (glasshouse, percentage damage to the plant); settings: post-emergence spray, 1000 g/ha unless otherwise stated, evaluated after 13 days
In short: (§1)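 Percentage damage to the plant, assessed 13 days after application and scored 1–5 in 20% bands. Pots sown in standard soil received compound at 1000 g/ha unless otherwise stated, sprayed under 24/16 °C, 14 h light, 65% humidity.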

[6] = test system: Abutilon theophrasti (ABUTH); test: as above; settings: post-emergence spray, 1000 g/ha unless otherwise stated, evaluated after 13 days
In short: as §1

[7] = test system: Amaranthus retoflexus (AMARE); test: as above; settings: post-emergence spray, 1000 g/ha unless otherwise stated, evaluated after 13 days
In short: as §1

[8] = test system: Ipomoea hederacea (IPOHE); test: as above; settings: post-emergence spray, 1000 g/ha unless otherwise stated, evaluated after 13 days
In short: (§2)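 Damage was rated 13 days after treatment and expressed on a five-point scale: 5=81-100%, 4=61-80%, 3=41-60%, 2=21-40%, 1=0-20%. Spray was applied at 1000 g/ha unless otherwise stated, from acetone/water (50:50) with 0.5% Tween 20, to sown pots.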

Setaria faberi (SETFA) [9] = test: as above; settings: post-emergence spray, 1000 g/ha unless otherwise stated, evaluated after 13 days
In short: as §2

Zea mays (ZEAMX) [10] = test: as above; settings: post-emergence spray, 1000 g/ha unless otherwise stated, evaluated after 13 days
In short: as §2

[11] = test system: Echinochloa crus-galli (ECHCG); test: Pre-emergence Test (glasshouse, percentage damage to the plant); settings: 1000 g/ha unless otherwise stated, five-point scale
[12] = test system: Ipomoea hederacea (IPOHE); test: as above; settings: 1000 g/ha unless otherwise stated, five-point scale

Compound | percentage damage to the plant, SETFA (Setaria faberi (SETFA) [1]) | percentage damage to the plant, AMARE [2] | percentage damage to the plant, ABUTH [3] | percentage damage to the plant, ZEAMX (Zea mays (ZEAMX) [4]) | Post-emergence Test ECHCG, percentage damage to the plant (five-point scale) [5] | Post-emergence Test ABUTH, percentage damage to the plant (five-point scale) [6] | Post-emergence Test AMARE, percentage damage to the plant (five-point scale) [7] | Post-emergence Test IPOHE, percentage damage to the plant (five-point scale) [8] | Post-emergence Test SETFA, percentage damage to the plant (five-point scale) (Setaria faberi (SETFA) [9]) | Post-emergence Test ZEAMX, percentage damage to the plant (five-point scale) (Zea mays (ZEAMX) [10]) | percentage damage to the plant, ECHCG [11] | percentage damage to the plant, IPOHE [12]
CCn1c(C)c(-c2cccc(C(C)=O)c2)c(=O)c(C(=O)O)c1-c1ccc(Cl)c(Cl)c1 [Compound 112, 5-(3-acetylphenyl)-2-(3,4-dichlorophenyl)-1-ethyl-6-methyl-4-oxo-pyridine-3-carboxylic acid] | 4 (4=61-80%) | 1 (1=0-20%) | 2 (2=21-40%) | 1 (1=0-20%) | 3 (3=41-60%) | 3 (3=41-60%) | 2 (2=21-40%) | 2 (2=21-40%) | 4 (4=61-80%) | 1 (1=0-20%) | 1 (1=0-20%) | 1 (1=0-20%)
CCn1c(C)c(-c2ccn(C)c(=O)c2)c(=O)c(C(=O)O)c1-c1ccc(Cl)c(Cl)c1 [Compound 58, 2-(3,4-dichlorophenyl)-1-ethyl-6-methyl-5-(1-methyl-2-oxo-4-pyridyl)-4-oxo-pyridine-3-carboxylic acid] | 1 (1=0-20%) | 1 (1=0-20%) | 1 (1=0-20%) | 1 (1=0-20%) | 1 (1=0-20%) | 1 (1=0-20%) | 1 (1=0-20%) | 1 (1=0-20%) | 1 (1=0-20%) | 1 (1=0-20%) | 1 (1=0-20%) | 1 (1=0-20%)
CCn1c(C)c(-c2cccc(OCC(F)(F)F)c2)c(=O)c(C(=O)O)c1-c1ccc(Cl)c(Cl)c1 [Compound 110, 2-(3,4-dichlorophenyl)-1-ethyl-6-methyl-4-oxo-5-[3-(2,2,2-trifluoroethoxy)phenyl] pyridine-3-carboxylic acid] | 1 (1=0-20%) | 1 (1=0-20%) | 1 (1=0-20%) | 1 (1=0-20%) | 1 (1=0-20%) | 1 (1=0-20%) | 1 (1=0-20%) | 1 (1=0-20%) | 1 (1=0-20%) | 1 (1=0-20%) | 1 (1=0-20%) | 1 (1=0-20%)
CCn1c(C)c(-c2ccnnc2)c(=O)c(C(=O)O)c1-c1ccc(Cl)cc1 [Compound 180, 2-(4-chlorophenyl)-1-ethyl-6-methyl-4-oxo-5-pyridazin-4-yl-pyridine-3-carboxylic acid] | 0 | 0 | 0 | 0 | 0 | 0 | 0 | 2 (2=21-40%) | 0 | 0 | 0 | 0
CCn1c(C)c(-c2ccc(COC)cc2)c(=O)c(C(=O)O)c1-c1ccc(Cl)c(Cl)c1 [Compound 111, 2-(3,4-dichlorophenyl)-1-ethyl-5-[4-(methoxymethyl)phenyl]-6-methyl-4-oxo-pyridine-3-carboxylic acid] | 5 (5=81-100%) | 1 (1=0-20%) | 2 (2=21-40%) | 3 (3=41-60%) | 3 (3=41-60%) | 4 (4=61-80%) | 2 (2=21-40%) | 2 (2=21-40%) | 4 (4=61-80%) | 2 (2=21-40%) | 4 (4=61-80%) | 1 (1=0-20%)
CCn1c(C)c(-c2ccc(OC(F)(F)F)cc2)c(=O)c(C(=O)O)c1-c1ccc(F)cc1F [Compound 136, 2-(2,4-difluorophenyl)-1-ethyl-6-methyl-4-oxo-5-[4-(trifluoromethoxy)phenyl]pyridine-3-carboxylic acid] | 5 (5=81-100%) | 2 (2=21-40%) | 3 (3=41-60%) | 1 (1=0-20%) | 3 (3=41-60%) | 3 (3=41-60%) | 3 (3=41-60%) | 2 (2=21-40%) | 4 (4=61-80%) | 1 (1=0-20%) | 3 (3=41-60%) | 2 (2=21-40%)
CCn1c(C)c(-c2cnc3c(c2)OC(F)(F)O3)c(=O)c(C(=O)O)c1-c1ccc(Cl)c(Cl)c1 [Compound 60, 2-(3,4-dichlorophenyl)-5-(2,2-difluoro-[1,3]dioxolo[4,5-b]pyridin-6-yl)-1-ethyl-6-methyl-4-oxo-pyridine-3-carboxylic acid] | 4 (4=61-80%) | 2 (2=21-40%) | 3 (3=41-60%) | 1 (1=0-20%) | 3 (3=41-60%) | 2 (2=21-40%) | 2 (2=21-40%) | 2 (2=21-40%) | 4 (4=61-80%) | 1 (1=0-20%) | 2 (2=21-40%) | 2 (2=21-40%)
CCn1c(C)c(-c2cc(F)c(OC)c(F)c2)c(=O)c(C(=O)O)c1-c1ccc(Cl)c(Cl)c1 [Compound 84, 2-(3,4-dichlorophenyl)-5-(3,5-difluoro-4-methoxy-phenyl)-1-ethyl-6-methyl-4-oxo-pyridine-3-carboxylic acid] | 4 (4=61-80%) | 1 (1=0-20%) | 3 (3=41-60%) | 1 (1=0-20%) | 1 (1=0-20%) | 3 (3=41-60%) | 2 (2=21-40%) | 3 (3=41-60%) | 3 (3=41-60%) | 1 (1=0-20%) | 1 (1=0-20%) | 3 (3=41-60%)
CCn1c(C)c(-c2cnccn2)c(=O)c(C(=O)O)c1-c1ccc(Cl)cn1 [Compound 168, 2-(5-chloro-2-pyridyl)-1-ethyl-6-methyl-4-oxo-5-pyrazin-2-yl-pyridine-3-carboxylic acid] | 0 | 0 | 0 | 0 | 0 | 0 | 0 | 0 | 0 | 0 | 0 | 0
CCn1c(C)c(-c2cc(OC)cc(OC)c2)c(=O)c(C(=O)O)c1-c1ccc(Cl)c(Cl)c1 [Compound 70, 2-(3,4-dichlorophenyl)-5-(3,5-dimethoxyphenyl)-1-ethyl-6-methyl-4-oxo-pyridine-3-carboxylic acid] | 3 (3=41-60%) | 1 (1=0-20%) | 1 (1=0-20%) | 1 (1=0-20%) | 2 (2=21-40%) | 2 (2=21-40%) | 1 (1=0-20%) | 1 (1=0-20%) | 3 (3=41-60%) | 2 (2=21-40%) | 1 (1=0-20%) | 1 (1=0-20%)
